Data from patent US6737383B1, “Herbicidal oxadiazolidines” (priority 1999, dated 2004).

Experiments:
blackgrass = assay: Test B pre/postemergence blackgrass; assay type: in vivo, Alopecurus myosuroides
How it was run: (§1)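 Herbicidal effect was estimated by eye on a ten-point control scale after plants spent twelve to sixteen days in a greenhouse following soil or foliar treatment. Foliar sprays targeted plants at one to four leaves; all doses were formulated in a non-phytotoxic solvent with surfactant.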

wild oat = assay: Test B pre/postemergence wild oat; assay type: in vivo, Avena fatua
How it was run: as §1

rice = assay: Test B flood test rice; assay type: in vivo, Oryza sativa; conditions: for Plant response rating, Rice (0 to 10 scale, 0 is no effect, 10 is complete control): Rate 62 g/ha; for Plant response rating, Rice (0 to 10 scale, 0 is no effect, 10 is complete control) / Rice plant response rating (0 to 10 scale, 0 is no effect, 10 is complete control): visual evaluation after twelve to sixteen days; for Rice plant response rating (0 to 10 scale, 0 is no effect, 10 is complete control): Rate 125 g/ha, under heading Pre-emergence
How it was run: (§2)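 Each value is a visual injury score relative to controls, with 10 meaning complete control and 0 no effect. Evaluation took place twelve to sixteen days after the 2-leaf-stage plants were treated and kept in the greenhouse.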

smallflower flatsedge = assay: Test B flood test smallflower flatsedge; assay type: in vivo, Cyperus difformis; conditions: for Plant response rating, S. Flatsedge (0 to 10 scale, 0 is no effect, 10 is complete control): Rate 62 g/ha; for Plant response rating, S. Flatsedge (0 to 10 scale, 0 is no effect, 10 is complete control) / S. Flatsedge plant response rating (0 to 10 scale, 0 is no effect, 10 is complete control): visual evaluation after twelve to sixteen days; for S. Flatsedge plant response rating (0 to 10 scale, 0 is no effect, 10 is complete control): Rate 125 g/ha, under heading Pre-emergence
How it was run: as §2

bamyardgrass = assay: Test B flood test barnyardgrass; assay type: in vivo, Echinochloa crus-galli; conditions: for Plant response rating, Barnyardgrass (0 to 10 scale, 0 is no effect, 10 is complete control): Rate 62 g/ha; for Plant response rating, Barnyardgrass (0 to 10 scale, 0 is no effect, 10 is complete control) / Barnyardgrass plant response rating (0 to 10 scale, 0 is no effect, 10 is complete control): visual evaluation after twelve to sixteen days; for Barnyardgrass plant response rating (0 to 10 scale, 0 is no effect, 10 is complete control): Rate 125 g/ha, under heading Pre-emergence
How it was run: as §2

[1] = Postemergence, Rate 125 g/ha, scale 0 to 10, 0 is no effect, 10 is complete control
[2] = Postemergence, Rate 250 g/ha, scale 0 to 10, 0 is no effect, 10 is complete control
[3] = Preemergence, Rate 62 g/ha, scale 0 to 10 (0 no effect, 10 complete control)
[4] = Preemergence, Rate 250 g/ha, scale of 0 to 10 where 0 is no effect and 10 is complete control
[5] = Preemergence, Rate 500 g/ha, scale of 0 to 10 where 0 is no effect and 10 is complete control
[6] = Rate 62 g/ha, Postemergence, scale of 0 to 10 where 0 is no effect and 10 is complete control
[7] = Rate 500 g/ha, Postemergence, scale 0 to 10, 0 no effect, 10 complete control
[8] = flood test species, Pre-emergence
[9] = Rate 250 g/ha, Pre-emergence, flood-test species, scale 0 to 10, 0 is no effect, 10 is complete control
[10] = Rate 500 g/ha, Pre-emergence, flood test species, scale 0 to 10 (0 no effect, 10 complete control)
[11] = Postemergence, Rate 250 g/ha, scale 0 to 10
[12] = Postemergence, Rate 500 g/ha, scale of 0 to 10 where 0 is no effect and 10 is complete control
[13] = Preemergence, Rate 62 g/ha, scale of 0 to 10 where 0 is no effect and 10 is complete control
[14] = Preemergence, Rate 125 g/ha, scale of 0 to 10 where 0 is no effect and 10 is complete control
[15] = Preemergence, Rate 250 g/ha, scale 0 to 10, 0 is no effect, 10 is complete control
[16] = Preemergence, Rate 500 g/ha, scale 0 to 10, 0 is no effect, 10 is complete control
[17] = Rate 62 g/ha, Postemergence, scale 0 to 10 (0 no effect, 10 complete control)
[18] = Rate 125 g/ha, Postemergence, scale 0 to 10, 0 is no effect, 10 is complete control
[19] = Rate 250 g/ha, Pre-emergence (flood test species), scale 0 to 10, 0 is no effect, 10 is complete control
[20] = Postemergence, Rate 31 g/ha, visual rating, scale 0 to 10 (0 no effect, 10 complete control)
[21] = Rate 31 g/ha, Pre-emergence section (flood test species), scale 0 to 10

Q: Which results are given for `CC(C)N(C(=O)n1oc(=O)n(N2C(C)CCCC2C)c1=O)c1ccc(F)cc1` (centres unmarked) [Compound 382]?
A: Plant response rating, Blackgrass (blackgrass; [1]): 0; Plant response rating, Blackgrass (blackgrass; [2]): 2; Plant response rating, Blackgrass (blackgrass; [3]): 0; Blackgrass plant response rating (0 to 10 scale) (blackgrass; Preemergence, Rate 125 g/ha): 1; Blackgrass plant response rating (blackgrass; [4]): 3; Blackgrass plant response rating (blackgrass; [5]): 7; Blackgrass plant response rating (blackgrass; [6]): 0; Plant response rating, Blackgrass (blackgrass; [7]): 2; Plant response rating, Wild oats (wild oat; [1]): 0; Plant response rating, Wild oats (wild oat; [2]): 0; Plant response rating, Wild oats (wild oat; [3]): 0; Wild oats plant response rating (0 to 10 scale) (wild oat; Preemergence, Rate 125 g/ha): 0; Wild oats plant response rating (wild oat; [4]): 0; Wild oats plant response rating (wild oat; [5]): 4; Wild oats plant response rating (wild oat; [6]): 0; Plant response rating, Wild oats (wild oat; [7]): 0; Plant response rating, Rice (0 to 10 scale, 0 is no effect, 10 is complete control) (rice; [8]): 0; Rice plant response rating (0 to 10 scale, 0 is no effect, 10 is complete control) (rice; flood test species): 0; Rice plant response rating (rice; [9]): 0; Rice plant response rating (rice; [10]): 0; Plant response rating, S. Flatsedge (0 to 10 scale, 0 is no effect, 10 is complete control) (smallflower flatsedge; [8]): 0; S. Flatsedge plant response rating (0 to 10 scale, 0 is no effect, 10 is complete control) (smallflower flatsedge; flood test species): 0; S. Flatsedge plant response rating (smallflower flatsedge; [9]): 0; S. Flatsedge plant response rating (smallflower flatsedge; [10]): 0; Plant response rating, Barnyardgrass (0 to 10 scale, 0 is no effect, 10 is complete control) (bamyardgrass; [8]): 0; Barnyardgrass plant response rating (0 to 10 scale, 0 is no effect, 10 is complete control) (bamyardgrass; flood test species): 0; Barnyardgrass plant response rating (bamyardgrass; [9]): 0; Barnyardgrass plant response rating (bamyardgrass; [10]): 0

Q: How did the “Blackgrass plant response rating” value (blackgrass; [11]) turn out when `CC(C)N(C(=O)n1oc(=O)n(C(C)Cl)c1=O)c1ccccc1` (centres unmarked) [Compound 438] was run?
A: 2

Q: And the “Blackgrass plant response rating” value (blackgrass; [12])?
A: 2

Q: And the “Plant response rating, Blackgrass” value (blackgrass; [13])?
A: 0

Q: And the “Plant response rating, Blackgrass” value (blackgrass; [14])?
A: 0

Q: What about the “Blackgrass plant response rating” value (blackgrass; [15]) of the same compound?
A: 2

Q: What about the “Blackgrass plant response rating” value (blackgrass; [16]) of the same compound?
A: 3

Q: What about the “Blackgrass plant response rating” value (blackgrass; [17]) of the same compound?
A: 0

Q: And the “Blackgrass plant response rating” value (blackgrass; [18])?
A: 0

Q: And the “Wild oats plant response rating” value (wild oat; [11])?
A: 0

Q: And the “Wild oats plant response rating” value (wild oat; [12])?
A: 0

Q: And the “Plant response rating, Wild oats” value (wild oat; [13])?
A: 0

Q: And the “Plant response rating, Wild oats” value (wild oat; [14])?
A: 0

Q: And the “Wild oats plant response rating” value (wild oat; [15])?
A: 1

Q: And the “Wild oats plant response rating” value (wild oat; [16])?
A: 3

Q: What about the “Wild oats plant response rating” value (wild oat; [17]) of the same compound?
A: 0

Q: What about the “Wild oats plant response rating” value (wild oat; [18]) of the same compound?
A: 0

Q: And the “Plant response rating, Rice (0 to 10 scale, 0 is no effect, 10 is complete control)” value (rice; [8])?
A: 0

Q: What about the “Rice plant response rating (0 to 10 scale, 0 is no effect, 10 is complete control)” value (rice; flood test species) of the same compound?
A: 0

Q: What about the “Rice plant response rating” value (rice; [19]) of the same compound?
A: 0

Q: What about the “Rice plant response rating” value (rice; [10]) of the same compound?
A: 0

Q: And the “Plant response rating, S. Flatsedge (0 to 10 scale, 0 is no effect, 10 is complete control)” value (smallflower flatsedge; [8])?
A: 0

Q: And the “S. Flatsedge plant response rating (0 to 10 scale, 0 is no effect, 10 is complete control)” value (smallflower flatsedge; flood test species)?
A: 0

Q: What about the “S. Flatsedge plant response rating” value (smallflower flatsedge; [19]) of the same compound?
A: 0

Q: And the “S. Flatsedge plant response rating” value (smallflower flatsedge; [10])?
A: 0

Q: What about the “Plant response rating, Barnyardgrass (0 to 10 scale, 0 is no effect, 10 is complete control)” value (bamyardgrass; [8]) of the same compound?
A: 0

Q: And the “Barnyardgrass plant response rating (0 to 10 scale, 0 is no effect, 10 is complete control)” value (bamyardgrass; flood test species)?
A: 0

Q: What about the “Barnyardgrass plant response rating” value (bamyardgrass; [19]) of the same compound?
A: 0

Q: And the “Barnyardgrass plant response rating” value (bamyardgrass; [10])?
A: 0

Q: Which results are given for `Cc1nc(C)c(C(C)n2c(=O)on(C(=O)N(c3ccccc3)C(C)C)c2=O)s1` (centres unmarked) [Compound 442]?
A: Blackgrass plant response rating (blackgrass; [20]): 0; Blackgrass plant response rating (blackgrass; [11]): 0; Blackgrass plant response rating (blackgrass; Preemergence, Rate 31 g/ha, visual rating, scale 0 to 10 (0 no effect, 10 complete control)): 0; Plant response rating, Blackgrass (blackgrass; [13]): 0; Plant response rating, Blackgrass (blackgrass; [14]): 0; Blackgrass plant response rating (blackgrass; [15]): 0; Blackgrass plant response rating (blackgrass; [17]): 0; Blackgrass plant response rating (blackgrass; [18]): 0; Wild oats plant response rating (wild oat; [20]): 0; Wild oats plant response rating (wild oat; [11]): 0; Plant response rating, Wild oats (wild oat; [13]): 0; Plant response rating, Wild oats (wild oat; [14]): 0; Wild oats plant response rating (wild oat; [15]): 0; Wild oats plant response rating (wild oat; [17]): 0; Wild oats plant response rating (wild oat; [18]): 0; Rice plant response rating (rice; [21]): 0; Plant response rating, Rice (0 to 10 scale, 0 is no effect, 10 is complete control) (rice; [8]): 0; Rice plant response rating (0 to 10 scale, 0 is no effect, 10 is complete control) (rice; flood test species): 0; Rice plant response rating (rice; [19]): 0; S. Flatsedge plant response rating (smallflower flatsedge; [21]): 0; Plant response rating, S. Flatsedge (0 to 10 scale, 0 is no effect, 10 is complete control) (smallflower flatsedge; [8]): 0; S. Flatsedge plant response rating (0 to 10 scale, 0 is no effect, 10 is complete control) (smallflower flatsedge; flood test species): 0; S. Flatsedge plant response rating (smallflower flatsedge; [19]): 0; Barnyardgrass plant response rating (bamyardgrass; [21]): 0; Plant response rating, Barnyardgrass (0 to 10 scale, 0 is no effect, 10 is complete control) (bamyardgrass; [8]): 0; Barnyardgrass plant response rating (0 to 10 scale, 0 is no effect, 10 is complete control) (bamyardgrass; flood test species): 0; Barnyardgrass plant response rating (bamyardgrass; [19]): 0
